Laboratory results from patent publication US20020055528A1, “Artemisinin analogs having antimalarial, antiproliferative, and antitumor activities and chemoselective methods of making the same” (priority 1999, published 2002).

Experiments:
Format in all cases: cell-based
LOX IMVI = assay: NCI 60 cell line screen (SRB), Melanoma
[1] = test system: MB231/ATCC (second line of the wrapped label, with values of its own); assay: NCI 60 cell line screen (SRB), Breast Cancer
HCC-2998 = assay: NCI 60 cell line screen (SRB), Colon Cancer
OVCAR-8 = assay: NCI 60 cell line screen (SRB), Ovarian Cancer
ACHN = assay: NCI 60 cell line screen (SRB), Renal Cancer
SK-MEL-5 = assay: NCI 60 cell line screen (SRB), Melanoma
CAKI-1 = assay: NCI 60 cell line screen (SRB), Renal Cancer
KM12 = assay: NCI 60 cell line screen (SRB), Colon Cancer
EKVX = assay: NCI 60 cell line screen (SRB), Non-Small Cell Lung Cancer
HCT-116 = assay: NCI 60 cell line screen (SRB), Colon Cancer
NCI-H522 = assay: NCI 60 cell line screen (SRB), Non-Small Cell Lung Cancer
RXF 393 = assay: NCI 60 cell line screen (SRB), Renal Cancer
HL-60(TB) = assay: NCI 60 cell line screen (SRB), Leukemia
BT-549 = assay: NCI 60 cell line screen (SRB), Breast Cancer
MALME-3M = assay: NCI 60 cell line screen (SRB), Melanoma
786-0 = assay: NCI 60 cell line screen (SRB), Renal Cancer
DU-145 = assay: NCI 60 cell line screen (SRB), Prostate Cancer
COLO 205 = assay: NCI 60 cell line screen (SRB), Colon Cancer; conditions: PG=+50
UACC-257 = assay: NCI 60 cell line screen (SRB), Melanoma
HCT-15 = assay: NCI 60 cell line screen (SRB), Colon Cancer
OVCAR-4 = assay: NCI 60 cell line screen (SRB), Ovarian Cancer
RPMI-8226 = assay: NCI 60 cell line screen (SRB), Leukemia; conditions: Table IV (LC50, PG=−50)
SNB-75 = assay: NCI 60 cell line screen (SRB), CNS Cancer
HOP-62 = assay: NCI 60 cell line screen (SRB), Non-Small Cell Lung Cancer
IGROVI = assay: NCI 60 cell line screen (SRB), Ovarian Cancer
MDA-N = assay: NCI 60 cell line screen (SRB), Breast Cancer
PC-3 = assay: NCI 60 cell line screen (SRB), Prostate Cancer
U251 = assay: NCI 60 cell line screen (SRB), CNS Cancer

CC1=C(C=Cc2cccc(C=CC3=C(C)C4CCC(C)C5CCC6(C)OOC45C(O3)O6)c2)OC2OC3(C)CCC4C(C)CCC1C24OO3 (centres unmarked) [VII-h] was tested. Which Log10TGI (LOX IMVI; PG=0) did it give?
Its Log10TGI is −5.67 log10M.

What about the Log10GI50 (LOX IMVI; PG=+50) of the same compound?
The Log10GI50 was −7.40 log10M.

What about the Log10GI50 (LOX IMVI; Table IV (LC50, PG=−50)) of the same compound?
The Log10GI50 was −4.15 log10M.

And the Log10TGI ([1]; PG=0)?
Its Log10TGI is −5.72 log10M.

And the Log10GI50 ([1]; PG=+50)?
Its Log10GI50 is −7.31 log10M.

What about the Log10GI50 ([1]; Table IV (LC50, PG=−50)) of the same compound?
Its Log10GI50 is greater than −4.00 log10M.

And the Log10TGI (HCC-2998; PG=0)?
Its Log10TGI is greater than −4.00 log10M.

And the Log10GI50 (HCC-2998; PG=+50)?
Its Log10GI50 is −6.57 log10M.

What about the Log10TGI (OVCAR-8; PG=0) of the same compound?
Its Log10TGI is greater than −4.00 log10M.

What about the Log10GI50 (OVCAR-8; PG=+50) of the same compound?
Its Log10GI50 is −7.33 log10M.

What about the Log10GI50 (OVCAR-8; Table IV (LC50, PG=−50)) of the same compound?
Its Log10GI50 is greater than −4.00 log10M.

What about the Log10TGI (ACHN; PG=0) of the same compound?
Its Log10TGI is greater than −4.00 log10M.

And the “Log10 GI50 or LC50 (see conditions)” value (ACHN; PG=+50)?
The value was −6.86 log10M.

What about the “Log10 GI50 or LC50 (see conditions)” value (ACHN; Table IV (LC50, PG=−50)) of the same compound?
The value was greater than −4.00 log10M.

What about the Log10TGI (SK-MEL-5; PG=0) of the same compound?
Its Log10TGI is −6.21 log10M.

What about the “Log10 GI50 or LC50” value (SK-MEL-5; PG=+50) of the same compound?
The value was −7.36 log10M.

And the Log10TGI (CAKI-1; PG=0)?
The Log10TGI was greater than −4.00 log10M.

And the Log10GI50 (CAKI-1; PG=+50)?
The Log10GI50 was −6.28 log10M.

What about the Log10GI50 (CAKI-1; Table IV (LC50, PG=−50)) of the same compound?
Its Log10GI50 is greater than −4.00 log10M.

And the Log10TGI (KM12; PG=0)?
Its Log10TGI is greater than −4.00 log10M.

And the Log10GI50 (KM12; PG=+50)?
Its Log10GI50 is −7.81 log10M.

What about the Log10GI50 (KM12; Table IV (LC50, PG=−50)) of the same compound?
Its Log10GI50 is greater than −4.00 log10M.

What about the Log10TGI (EKVX; PG=0) of the same compound?
The Log10TGI was greater than −4.00 log10M.

And the Log10GI50 (EKVX; PG=+50)?
The Log10GI50 was −7.42 log10M.

And the Log10GI50 (EKVX; Table IV (LC50, PG=−50))?
Its Log10GI50 is greater than −4.00 log10M.

And the Log10TGI (HCT-116; PG=0)?
Its Log10TGI is −5.38 log10M.

What about the “Log10 GI50 (PG=+50) or Log10 LC50 (PG=−50), as given per row condition” value (HCT-116; PG=+50) of the same compound?
Its value is −7.53 log10M.

What about the “Log10 GI50 (PG=+50) or Log10 LC50 (PG=−50), as given per row condition” value (HCT-116; Table IV (LC50, PG=−50)) of the same compound?
Its value is greater than −4.00 log10M.

And the Log10TGI (NCI-H522; PG=0)?
Its Log10TGI is greater than −4.00 log10M.

And the Log10GI50 (NCI-H522; PG=+50)?
Its Log10GI50 is −7.22 log10M.

And the Log10GI50 (NCI-H522; Table IV (LC50, PG=−50))?
The Log10GI50 was greater than −4.00 log10M.

What about the Log10TGI (RXF 393; PG=0) of the same compound?
Its Log10TGI is greater than −4.00 log10M.

And the Log10GI50 (RXF 393; PG=+50)?
The Log10GI50 was −6.48 log10M.

What about the Log10GI50 (RXF 393; Table IV (LC50, PG=−50)) of the same compound?
Its Log10GI50 is greater than −4.00 log10M.

What about the Log10TGI (HL-60(TB); PG=0) of the same compound?
The Log10TGI was −7.59 log10M.

What about the Log10GI50 (HL-60(TB); PG=+50) of the same compound?
Its Log10GI50 is −7.59 log10M.

What about the Log10GI50 (HL-60(TB); Table IV (LC50, PG=−50)) of the same compound?
Its Log10GI50 is greater than −4.00 log10M.

What about the Log10TGI (BT-549; PG=0) of the same compound?
Its Log10TGI is −7.10 log10M.

What about the Log10GI50 (BT-549; PG=+50) of the same compound?
Its Log10GI50 is less than −8.00 log10M.

And the Log10GI50 (BT-549; Table IV (LC50, PG=−50))?
The Log10GI50 was greater than −4.00 log10M.

What about the Log10TGI (MALME-3M; PG=0) of the same compound?
Its Log10TGI is −4.17 log10M.

And the Log10GI50 (MALME-3M; PG=+50)?
Its Log10GI50 is −6.94 log10M.

And the Log10GI50 (MALME-3M; Table IV (LC50, PG=−50))?
The Log10GI50 was greater than −4.00 log10M.

What about the Log10TGI (786-0; PG=0) of the same compound?
Its Log10TGI is greater than −4.00 log10M.

And the Log10GI50 (786-0; PG=+50)?
Its Log10GI50 is −7.02 log10M.

And the Log10GI50 (786-0; Table IV (LC50, PG=−50))?
The Log10GI50 was greater than −4.00 log10M.

And the Log10TGI (DU-145; PG=0)?
Its Log10TGI is greater than −4.00 log10M.

What about the Log10GI50 (DU-145; PG=+50) of the same compound?
The Log10GI50 was −6.16 log10M.

And the Log10GI50 (DU-145; Table IV (LC50, PG=−50))?
Its Log10GI50 is greater than −4.00 log10M.

What about the Log10GI50 (COLO 205) of the same compound?
The Log10GI50 was −7.88 log10M.

And the Log10TGI (UACC-257; PG=0)?
The Log10TGI was greater than −4.00 log10M.

And the “Log10 GI50 (PG=+50) or Log10 LC50 (PG=−50)” value (UACC-257; PG=+50)?
The value was −7.21 log10M.

What about the “Log10 GI50 (PG=+50) or Log10 LC50 (PG=−50)” value (UACC-257; Table IV (LC50, PG=−50)) of the same compound?
The value was greater than −4.00 log10M.

And the Log10TGI (HCT-15; PG=0)?
The Log10TGI was greater than −4.00 log10M.

What about the “log10 GI50 (PG=+50) or LC50 (PG=−50), per row condition” value (HCT-15; PG=+50) of the same compound?
The value was −7.39 log10M.

What about the “log10 GI50 (PG=+50) or LC50 (PG=−50), per row condition” value (HCT-15; Table IV (LC50, PG=−50)) of the same compound?
Its value is greater than −4.00 log10M.

What about the Log10GI50 (OVCAR-4; OVCAR-4, PG=+50) of the same compound?
The Log10GI50 was −7.51 log10M.

And the Log10TGI (OVCAR-4; OVCAR−4, PG=0)?
Its Log10TGI is −6.31 log10M.

What about the Log10GI50 (OVCAR-4; Table IV (LC50, PG=−50), OVCAR−4) of the same compound?
Its Log10GI50 is greater than −4.00 log10M.

And the Log10GI50 (RPMI-8226)?
The Log10GI50 was greater than −4.00 log10M.

What about the Log10TGI (SNB-75; PG=0) of the same compound?
Its Log10TGI is −5.08 log10M.

What about the “Log10 GI50 (PG=+50) or LC50 (PG=−50)” value (SNB-75; PG=+50) of the same compound?
The value was −6.99 log10M.

What about the “Log10 GI50 (PG=+50) or LC50 (PG=−50)” value (SNB-75; Table IV (LC50, PG=−50)) of the same compound?
Its value is greater than −4.00 log10M.

And the Log10TGI (HOP-62; PG=0)?
Its Log10TGI is greater than −4.00 log10M.

And the Log10GI50 (HOP-62; PG=+50)?
Its Log10GI50 is −7.08 log10M.

And the Log10GI50 (HOP-62; Table IV (LC50, PG=−50))?
Its Log10GI50 is greater than −4.00 log10M.

What about the Log10TGI (IGROVI; PG=0) of the same compound?
Its Log10TGI is −4.20 log10M.

And the Log10GI50 (IGROVI; Table IV (LC50, PG=−50))?
Its Log10GI50 is greater than −4.00 log10M.

And the Log10TGI (MDA-N; PG=0)?
Its Log10TGI is −5.42 log10M.

What about the Log10GI50 (MDA-N; PG=+50) of the same compound?
The Log10GI50 was −7.33 log10M.

And the Log10GI50 (MDA-N; Table IV (LC50, PG=−50))?
The Log10GI50 was greater than −4.00 log10M.

What about the Log10TGI (PC-3; PG=0) of the same compound?
The Log10TGI was greater than −4.00 log10M.

What about the “Log10 GI50 (PG=+50) or LC50 (PG=−50)” value (PC-3; PG=+50) of the same compound?
The value was −7.70 log10M.

And the “Log10 GI50 (PG=+50) or LC50 (PG=−50)” value (PC-3; Table IV (LC50, PG=−50))?
The value was greater than −4.00 log10M.

And the Log10TGI (U251; PG=0)?
The Log10TGI was greater than −4.00 log10M.

What about the Log10GI50 (U251; PG=+50) of the same compound?
Its Log10GI50 is −7.26 log10M.

And the Log10GI50 (U251; Table IV (LC50, PG=−50))?
The Log10GI50 was greater than −4.00 log10M.
